Reference: paper PMC3446250 (2012)
pIC50: −log10 of the molar value.

Target: T1, GLIC (Gloeobacter violaceus, UniProt Q7NDN8, N194C)
T1 sequence (Q7NDN8 44-359 N194C): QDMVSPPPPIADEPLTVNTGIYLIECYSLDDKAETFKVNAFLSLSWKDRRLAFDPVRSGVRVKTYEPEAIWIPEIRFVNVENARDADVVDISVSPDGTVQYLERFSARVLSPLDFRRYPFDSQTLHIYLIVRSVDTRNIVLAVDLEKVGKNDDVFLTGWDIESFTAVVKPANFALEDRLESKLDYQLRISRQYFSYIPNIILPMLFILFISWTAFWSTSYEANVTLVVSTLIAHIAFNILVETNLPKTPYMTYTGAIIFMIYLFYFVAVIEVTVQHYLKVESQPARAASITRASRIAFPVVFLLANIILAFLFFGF
Assay: two-electrode voltage clamp in Xenopus oocytes at EC20
Type: cell-based

CNC1(c2ccccc2Cl)CCCCC1=O (stereo not shown) [ketamine]
pIC50: 3.96
